Tests used:
Format in all cases: functional
[1] = tested on: Mycobacterium tuberculosis; assay: Upregulation of p27 gene expression in Mycobacterium tuberculosis by microarray
[2] = tested on: Mycobacterium tuberculosis; assay: Upregulation of p55 gene expression Mycobacterium tuberculosis by microarray
[3] = tested on: Mycobacterium tuberculosis; assay: Downregulation of p27 gene expression Mycobacterium tuberculosis by microarray
[4] = tested on: Mycobacterium tuberculosis; assay: Downregulation of p55 gene expression Mycobacterium tuberculosis by microarray

Measured: fold change (FC)

CN(C)CCCN1c2ccccc2Sc2ccc(Cl)cc21 [CHLORPROMAZINE]
>=2: [1] | [2] | [3] | [4]

CSc1ccc2c(c1)N(CCC1CCCCN1C)c1ccccc1S2 (configuration not stated) [THIORIDAZINE]
>=2: [1] | [2] | [3] | [4]

CC(C)/N=c1\cc2n(-c3ccc(Cl)cc3)c3ccccc3nc-2cc1Nc1ccc(Cl)cc1 [CLOFAZIMINE]
>=2: [1] | [2] | [3] | [4]

CC1=CC(=O)c2ccccc2C1=O [MENADIONE]
>=2: [1] | [2] | [3] | [4]

Oc1cc(Cl)ccc1Oc1ccc(Cl)cc1Cl [TRICLOSAN]
>=2: [1] | [2] | [3] | [4]

O=[N+]([O-])c1cn2c(n1)OC[C@@H](OCc1ccc(OC(F)(F)F)cc1)C2 [PRETOMANID]
>=2: [1] | [2] | [3] | [4]

CO[C@@H]1[C@@H](OC(N)=O)[C@@H](O)[C@H](Oc2ccc3c(O)c(NC(=O)c4ccc(O)c(CC=C(C)C)c4)c(=O)oc3c2C)OC1(C)C [NOVOBIOCIN]
>=2: [1] | [2] | [3] | [4]

CC(C)[C@@H]1NC(=O)[C@H](C)OC(=O)[C@@H](C(C)C)NC(=O)[C@@H](C(C)C)OC(=O)[C@H](C(C)C)NC(=O)[C@H](C)OC(=O)[C@@H](C(C)C)NC(=O)[C@@H](C(C)C)OC(=O)[C@H](C(C)C)NC(=O)[C@H](C)OC(=O)[C@@H](C(C)C)NC(=O)[C@@H](C(C)C)OC1=O [VALINOMYCIN]
>=2: [1] | [2] | [3] | [4]

— ChEMBL document CHEMBL1649585, “Role of the Mycobacterium tuberculosis P55 efflux pump in intrinsic drug resistance, oxidative stress responses, and growth” (2009)
